We go through one compound from patent publication US20050191348A1 (priority 2004, published 2005).

Test [1] relates to Bcl-2 family and PKC isoform mRNA. As to the kind of experiment: Gene expression by quantitative real-time RT-PCR in serum-free PC12 cells. To be noted: 1 μM, 24 h, serum-free PC12. The format is cell-based, rat. The method, then: (vi) Total RNA extraction. PC12 cells were cultured in DMEM containing 5% FCS and 10% horse serum until confluence. At the day of the experiment, the medium was replaced with fresh medium without serum and rasagiline or propargylamine at various concentrations were administered for 24 h. At the end of incubation, the medium was removed and isolation of total RNA was performed, using Tri Reagent™ Isolation reagent. Total RNA was treated with DNase-RNase free (Roche Diagnostics, Mannheim, Germany) for 30 min at 37° C. and subsequently extracted by a round of phenol:chlorophorm:isoamylalcohol (25:24:1), followed by one of chloroform. After precipitation with NaOAc (0.3 M) and ethyl alcohol, the RNA pellet was washed with 80% ethyl alcohol (12,000×g) for 10 min and resuspended in 50-100 μl of diethylpyrocarbonate (DEPC)-treated water and incubated for 5-10 min at 56° C. to facilitate resuspension.
(vi) Reverse transcription (RT) and quantitative real-time RT-PCR. In order to confirm the results obtained with the customized cDNA expression micro-array, 2 μg of total RNA were denatured and reverse transcribed using random hexanucleotides (0.5 μg/μl). Secondary structures of the template and primer (total volume of 16 μl) were opened by incubation for 5 min at 70° C. and immediately cooled on ice. Reaction mix (9 μl) containing reaction buffer, dNTP (0.5 mm each), RNAasin™ RNAase inhibitor (Promega) (25U) and M-MLV reverse transcriptase (200U) was added and samples were incubated at 39° C. for 1 h. For every RNA preparation a negative control was run in parallel consisting of a direct amplification of the RNA sample, omitting the RT step. The samples were transferred to 92° C. for 10 min, in order to deactivate the enzyme, and then cooled to 4° C.
Quantitative real-time PCR, using LightCycler and FastStart DNA Master SYBR Green I ready-to use PCR mix, was performed according to the manufacture's protocol (Roche Diagnostics, Mannheim, Germany). cDNA (40 ng) was amplified in 20 μl total volume. The sequences of the primers and the size of the products are described in Table 1. The results are analyzed on the provided program of the LightCycler. The relative expression level of a given mRNA was assessed by normalizing to the housekeeping gene 18S-rRNA and compared with control values.
In this experiment, we examined whether Bcl-2 family proteins mediate the pro-survival effect of rasagiline, using serum-starved rat pheochromocytoma PC12 cell line as a model of neuronal apoptosis. PC12 cells were maintained in full-serum (control), or in serum-free (SF) media in the absence or presence of various concentrations of rasagiline (0.001, 0.1, 1 and 10 μM) for 3 h or 24 h, and gene expression was measured by quantitative real-time RT-PC. The real-time RT-PCR consists of RNA samples isolated from said PC-12 cells. Each gene expression was normalized to the housekeeping gene, 18S-rRNA, since this transcript was reported to be less susceptible to the influence by external factors.
The effect of propargylamine on Bad and Bax mRNA levels was examined as described in Example 5 above.
In general terms: In qPCR the cycle at which signal appears reflects the starting amount.

The subject of another test is MAPK. As to the kind of experiment: MAPK activation (phospho-p44/42 MAPK immunoblot) in PC12 cells. In kind it is cell-based, rat. The following applies: PC12, 0.1, 1 and 10 μM, 0.5 h. The method, then:
(viii) Extracellular signal-regulated kinase (ERK) activity. The kinase activity of the ERKs was measured using the MAPK assay kit (Cell Signaling Technology) according to the manufacturer's protocol. In brief, for kinase activity assays, PC12 cells were grown in 6-well plates (5×10^5 cells/well). Eighteen to twenty-four hours before experiments, the medium was replaced with DMEM with 0.5% FCS and treated as described in the figures. Experimental treatments were performed in 1 ml medium containing 0.5% FCS, with the vehicle or test drugs and/or inhibitors at 37° C., as described in the figures. After treatment, reactions were stopped by placing cells on ice and aspirating the medium. Cells were harvested in 50 mM Tris-HCl, pH 8.0, 150 mM NaCl, 5 mM EDTA, 1 mM DTT, 1% Triton X-100, and protease- and phosphatase-inhibitor cocktails. Protein concentration was determined by the Bradford method. As described previously (Yogev-Falach et al., 2002), each cell lysate, containing 30 μg protein, was separated on 4-12% SDS-polyacrylamide electrophoresis gels, immunoblotted, and identified using phospho-p44/42 MAPK (Thr202/Tyr204) antibody or p44/42 MAPK antibody. Data are representative of three to six independent experiments.
To study the effect of rasagiline on MAPK activation, PC12 cells were treated for 0.5 h with increasing concentrations of rasagiline (0.1, 1 and 10 μM), and quantification of the phospho-MAPK blots were normalized using the total MAPK blots, or PC12 cells were preincubated for 15 min with vehicle alone, or with PD98059 (30 μM) or GF109203X (2.5 μM) and then incubated without or with rasagiline (10 μM) for 0.5 h. Aliquots of cell lysates were then subjected to immunoblot analysis and probed with anti-phospho-MAPK (top blots) and anti-MAPK (bottom blots).
For the effect of propargylamine on MAPK activation, PC12 cells were treated for 0.5 h with increasing concentrations of propargylamine (0.1, 1 and 10 μM). Aliquots of cell lysates were then subjected to immunoblot analysis and probed with anti-phospho-MAPK and anti-MAP kinase. Quantification of the phospho-MAPK were normalized using the total MAPK blots.
For orientation: Immunoblotting shows a protein as a band on a membrane.

Consider `C#CCN` [propargylamine], for which, in test [1], the Bad gene expression result is “restored both Bax and Bad gene expressions to that of full serum level”; the Bax gene expression result was “restored both Bax and Bad gene expressions to that of full serum level”. In addition, the MAPK phosphorylation result with MAPK was “induced MAPK phosphorylation”.
